Entries after “also recorded” stand apart in the source; their conditions may differ.

One molecule from patent US10472677B2, “Translational dysfunction based therapeutics” (Translational Therapeutics, Inc., priority 2005, dated 2019) can be followed below.

In data set [1] the test system is eIF4E-transfected NIH 3T3 cells. Kind of data set: transformation assay, anchorage-dependent foci formation. It counts as cell-based. The conditions noted are these: Mus musculus, NIH3T3, read-out: apparent EC50 suppression of eIF4E-mediated transformation.
In the next data set the test system is AML-M1 progenitor cells. Kind of data set: clonogenic assay, primary CD34+ progenitors. The format is cell-based, human. Particulars: at ca. 1 uM / similar concentrations. The source says: (§1) Acute myelogenous leukemia (AML) M1, M5, and normal bone marrow specimens were isolated from patients and processed as described. Primary AML cells were obtained from peripheral blood of patients at the Markey Cancer Center, University of Kentucky Medical Center (Lexington, Ky.). Normal bone marrow was obtained as waste material after pathological analysis, surgical marrow harvest, or from the National Disease Research Interchange (Philadelphia). All tissues were obtained with the approval of the Institutional Review Board and appropriate informed consent. Frozen CD34^+ progenitor cells were thawed in Iscove's modified Dulbecco's (IMD) medium supplemented with 10% (vol/vol) FBS. […] Colonies with >20 cells were counted manually and experiments were repeated four times.

In data set [2] the test system is normal bone marrow myeloid progenitors. Kind of data set: clonogenic assay, primary CD34+ progenitors. It counts as cell-based, human. The conditions noted are these: micromolar concentrations.
Description: as §1

Regarding `NC(=O)c1ncn([C@@H]2O[C@H](CO)[C@@H](O)[C@H]2O)n1` [Ribavirin, 1-β-D-ribofuranosyl-1,2,4-triazole-3-carboxamide], in data set [1], the EC50 lay within 100 to 1000 nM. Also, the “colony formation of AML-M1 progenitors” value with AML-M1 progenitor cells was “no effect; also recorded: failed to repress colony formation”. Further, the “colony formation of normal bone marrow progenitors” value in data set [2] was “no effect; also recorded: lack of an effect”.

A word on the EC50: it is the concentration giving half of the maximal effect.
